In patent US9981983B2, “Thienopyranones as kinase inhibitors” (SignalRx Pharmaceuticals, Inc., priority 2008, dated 2018):
pIC50: −log10 of the molar value.

Tests used:
PC3 cells = assay: PC3 prostate cancer cell proliferation (WST); format: cell-based; settings: Homo sapiens, PC-3; 72 hours; read-out: IC50 PC3 Proliferation
Protocol: PC3 cells were obtained from the American Type Culture Collection (ATCC, Manassas, Va., Cat.# CRL-1435) Two thousand cells from the prostate cancer line PC3 were placed in 50 μL of complete RPMI 1640 media (Invitrogen, Carlsbad, Calif., Cat.#22400-105) with 10% fetal bovine serum (Invitrogen, Carlsbad, Calif., Cat.#10438-026) into each well of 96 well cell culture plates in a hexaplicate sampling pattern. A 50 μL aliquot of test compound (prepared from stock test compounds in DMSO diluted into media) was added to the appropriate well such that the final concentrations of test compound were 200, 40, 8, 1.6, 0.32, 0.064, 0.0128, 0.00256, and 0 μM and the final DMSO concentration was less than or equal to 0.2%.
The plates were incubated for 72 hours 37° C. in an atmosphere of 5% CO2. At the end of this time a 10 μL aliquot of WST solution (Roche Applied Science, Mannheim, Germany) was added into each of the wells. Cells were exposed to the WST solution for 4 hours. A SpectraMax Plus spectrophotometric plate reader (Molecular Devices, Sunnydale, Calif.) was then used to measure the optical density at 450 nm (OD450 nm). Sigmoidal curves were drawn for the dose responses and IC50 values were calculated using the software package GraphPad Prism4 (GraphPad Software, Inc., San Diego, Calif.).

MCF7 breast cancer cells = assay: Mammosphere cancer stem cell inhibition assay; format: cell-based
Protocol: A mammosphere cancer stem cell inhibition assay was set up using literature methods (T. M. Phillips et al. J. Natl. Cancer I. 2006, 98, 1777-1785, “Mammalian target of rapamycin contributes to the acquired apoptotic resistance of human mesothelioma multicellular spheroids”) using a subset of MCF7 breast cancer cells that posses the ability to evade anchorage independent apoptosis. Commercially available MCF7 breast cancer cells were cultured in MEM supplemented with 0.01 mg/mL of bovine insulin and 10% FBS at 37° C. in humidified atmosphere (5% CO2). Floating cells in the 2-day cultures were collected, washed, and resuspended in DMEM-F12 (50:50) supplemented with 0.4% BSA, 5 μg/mL bovine insulin, 20 ng/mL bFGF, and 10 ng/mL EGF. Cells were then passed through a […] sieve to remove any cell clusters and adjusted to a density of 10,000 cells/mL. Approximately 500 cells were plated in quadruplicate in a sterile poly-HEMA-treated 96-well plate. Cells were then treated with either control or test solutions consisting of the kinase inhibitor Lapatinib (1 μM), Cpd 28 (1 or 10 μM), Cpd 55 (1 or 10 μM), The numbers of mammospheres (clusters of cells numbering more than 4 or 5 per cluster) were then counted after 5-7 days.

| pIC50 (PC3 cells) | Structure (SMILES) | further results |
| --- | --- | --- |
| 4.70 | O=c1cc(N2CCOCC2)oc2c(Cc3ccccc3)csc12 [Compound 1] | – |
| 4.73 | O=c1cc(N2CCOCC2)oc2c(-c3ccncc3)csc12 [Compound 2] | – |
| 4.96 | O=c1cc(N2CCOCC2)oc2c(-c3cccnc3)csc12 [Compound 3, 5-morpholino-3-(pyridin-3-yl)-7H-thieno[3,2-b]pyran-7-one] | – |
| 5.74 | COc1ccc(-c2csc3c(=O)cc(N4CCOCC4)oc23)cc1 [Compound 8] | – |
| 5.07 | O=c1cc(N2CCOCC2)oc2c(-c3cc4ccccc4[nH]3)csc12 [Compound 12] | – |
| 5.35 | Cc1ccc(-c2csc3c(=O)cc(N4CCOCC4)oc23)cc1 [Compound 15] | – |
| 5.22 | Cc1cccc(-c2csc3c(=O)cc(N4CCOCC4)oc23)c1 [Compound 16] | – |
| 4.54 | O=c1cc(N2CCOCC2)oc2c(-c3ccc(Cl)cc3)csc12 [Compound 17, 3-(4-chlorophenyl)-5-morpholino-7H-thieno[3,2-b]pyran-7-one] | – |
| 5.32 | COc1cccc(-c2csc3c(=O)cc(N4CCOCC4)oc23)c1 [Compound 29] | – |
| 5.43 | O=c1cc(N2CCOCC2)oc2c(C#Cc3ccccc3)csc12 [Compound 31, 5-morpholino-3-(phenylethynyl)-7H-thieno[3,2-b]pyran-7-one] | – |
| 5.70 | O=C(Nc1ccc(-c2csc3c(=O)cc(N4CCOCC4)oc23)cc1)c1ccccc1 [Compound 34] | – |
| 5.68 | CNc1ccc(-c2csc3c(=O)cc(N4CCOCC4)oc23)cc1 [Compound 41] | – |
| 5.32 | O=C(NCc1ccccc1)c1ccc(-c2csc3c(=O)cc(N4CCOCC4)oc23)cc1 [Compound 50, N-benzyl-4-(5-morpholino-7-oxo-7H-thieno[3,2-b]pyran-3-yl)benzamide] | – |
| 4.62 | O=C(Nc1ccccc1)c1csc2c(=O)cc(N3CCOCC3)oc12 [Compound 51, 5-morpholino-7-oxo-N-phenyl-7H-thieno[3,2-b]pyran-3-carboxamide] | – |
| 3.95 | O=C(NCc1ccccc1)c1csc2c(=O)cc(N3CCOCC3)oc12 [Compound 53] | – |
| 5.30 | O=C(Nc1ccccn1)c1ccc(-c2csc3c(=O)cc(N4CCOCC4)oc23)cc1 [Compound 61] | – |
| 5.11 | O=C(NCc1ccccc1)c1cccc(-c2csc3c(=O)cc(N4CCOCC4)oc23)c1 [Compound 63] | – |
| 5.16 | O=C(Nc1ccccn1)c1cccc(-c2csc3c(=O)cc(N4CCOCC4)oc23)c1 [Compound 66] | – |
| 4.02 | O=c1cc(C2CCOCC2)oc2c(-c3ccccc3)cccc12 [Compound 67, 8-Phenyl-2-(tetrahydro-2H-pyran-4-yl)-4H-chromen-4-one] | – |
| 4.46 | S=c1cc(N2CCOCC2)oc2c(-c3ccccc3)cccc12 [Compound 68, 2-morpholino-8-phenyl-4H-chromene-4-thione] | – |
| 5.46 | O=c1cc(N2CCOCC2)oc2c(-c3cccc(Cl)c3)csc12 [Compound 85, 3-(3-chlorophenyl)-5-morpholino-7H-thieno[3,2-b]pyran-7-one] | – |
| 5.21 | O=c1cc(N2CCOCC2)oc2c(-c3ccc(O)cc3)csc12 [Compound 98] | – |
| 4.78 | O=c1cc(N2CCOCC2)oc2c(-c3cccc(O)c3)csc12 [Compound 99] | – |
| 3.89 | O=C(O)c1ccc(-c2csc3c(=O)cc(N4CCOCC4)oc23)cc1 [Compound 100] | – |
| 4.66 | O=c1cc(N2CCOCC2)oc2c(-c3ccc(Br)cc3)csc12 [Compound 101] | – |

Second part, the molecule before the results:

| Structure (SMILES) | pIC50 (PC3 cells) | further results |
| --- | --- | --- |
| O=c1cc(N2CCOCC2)oc2c(-c3ccco3)csc12 [Compound 4] | 5.23 | – |
| O=c1cc(N2CCOCC2)oc2c(-c3ccc4c(c3)OCO4)csc12 [Compound 7] | 5.76 | – |
| O=c1cc(N2CCOCC2)oc2c(-c3cccs3)csc12 [Compound 14] | 5.36 | – |
| O=c1cc(N2CCOCC2)oc2c(-c3ccc(Cl)c(Cl)c3)csc12 [Compound 18] | 4.42 | – |
| O=c1cc(N2CCOCC2)oc2c(-c3ccc4[nH]ccc4c3)csc12 [Compound 19] | 5.09 | – |
| O=c1cc(N2CCOCC2)oc2c(-c3ccc(C(F)(F)F)cc3)csc12 [Compound 20] | 3.11 | – |
| COC(=O)c1scc(-c2csc3c(=O)cc(N4CCOCC4)oc23)c1O [Compound 21, methyl 3-hydroxy-4-(5-morpholino-7-oxo-7H-thieno[3,2-b]pyran-3-yl)thiophene-2-carboxylate] | 4.46 | – |
| CN1CCOc2cc(-c3csc4c(=O)cc(N5CCOCC5)oc34)ccc21 [Compound 22] | 5.98 | – |
| O=c1cc(N2CCOCC2)oc2c(C#Cc3ccsc3)csc12 [Compound 23] | 5.13 | – |
| O=c1cc(N2CCOCC2)oc2c(C#CCO)csc12 [Compound 24] | 4.55 | – |
| O=c1cc(N2CCOCC2)oc2c(-c3ccsc3)csc12 [Compound 26] | 5.25 | – |
| O=c1cc(N2CCOCC2)oc2c(-c3ccoc3)csc12 [Compound 27] | 5.03 | – |
| O=c1cc(N2CCOCC2)oc2c(-c3ccc(Cl)nc3)csc12 [Compound 32] | 5.05 | – |
| O=c1cc(N2CCOCC2)oc2c(-c3ccc4cc[nH]c4c3)csc12 [Compound 35] | 5.25 to 5.57 | – |
| CN(C(=O)OC(C)(C)C)c1ccc(-c2csc3c(=O)cc(N4CCOCC4)oc23)cc1 [Compound 36] | 5.57 | – |
| CN(C)c1ccc(C#Cc2csc3c(=O)cc(N4CCOCC4)oc23)cc1 [Compound 37] | 5.60 | – |
| O=c1cc(N2CCOCC2)oc2c(C#Cc3cccc(F)c3)csc12 [Compound 39] | 5.48 | – |
| COc1cc(C#Cc2csc3c(=O)cc(N4CCOCC4)oc23)cc(OC)c1 [Compound 40] | 5.74 | – |

| Structure (SMILES) | pIC50 (PC3 cells) | further results |
| --- | --- | --- |
| O=C(NCCN1CCOCC1)c1cccc(-c2csc3c(=O)cc(N4CCOCC4)oc23)c1 [Compound 42] | 5.11 | – |
| CN1CCN(c2ncc(-c3csc4c(=O)cc(N5CCOCC5)oc34)cn2)CC1 [Compound 43] | 5.03 | inhibition of mammosphere production versus control (MCF7 breast cancer cells; 1 μM, separate experiment): ~53%; number of mammospheres (MCF7 breast cancer cells; 1 μM, separate experiment, control 32±6): 18±6 mammospheres; inhibition of mammosphere production versus control (MCF7 breast cancer cells; 10 μM, separate experiment): ~58%; number of mammospheres (MCF7 breast cancer cells; 10 μM, separate experiment, control 32±6): 16±6 mammospheres |
| COC(=O)c1ccc(-c2csc3c(=O)cc(N4CCOCC4)oc23)cc1 [Compound 44] | 5.36 | – |
| COC(=O)c1cccc(-c2csc3c(=O)cc(N4CCOCC4)oc23)c1 [Compound 45] | 5.33 | – |
| O=C(Nc1cccc(-c2csc3c(=O)cc(N4CCOCC4)oc23)c1)c1cccnc1 [Compound 46] | 4.21 | – |
| CN(C)c1ccc(C(=O)Nc2cccc(-c3csc4c(=O)cc(N5CCOCC5)oc34)c2)cc1 [Compound 49] | 5.50 | – |
| CCN(CC)C(=O)c1csc2c(=O)cc(N3CCOCC3)oc12 [Compound 52] | 3.80 | – |
| O=C(Nc1ccc(-c2csc3c(=O)cc(N4CCOCC4)oc23)cc1)c1cccnc1 [Compound 55] | 5.82 to 5.98 | inhibition of mammosphere production versus control (MCF7 breast cancer cells; 1 μM, first experiment): approximately 60%; number of mammospheres (MCF7 breast cancer cells; 1 μM, first experiment, control 38±4): 16±2 mammospheres; inhibition of mammosphere production versus control (MCF7 breast cancer cells; 10 μM, first experiment): ~86%; number of mammospheres (MCF7 breast cancer cells; 10 μM, first experiment, control 38±4): 5±1 mammospheres |
| O=C(Nc1cccnc1)c1ccc(-c2csc3c(=O)cc(N4CCOCC4)oc23)cc1 [Compound 58] | 4.78 | – |
| O=C(Nc1ccncc1)c1ccc(-c2csc3c(=O)cc(N4CCOCC4)oc23)cc1 [Compound 59] | 4.76 | – |
| O=C(Nc1ccncc1)c1cccc(-c2csc3c(=O)cc(N4CCOCC4)oc23)c1 [Compound 64] | 4.75 | – |
| CN(C)c1ccc(NC(=O)c2cccc(-c3csc4c(=O)cc(N5CCOCC5)oc34)c2)cc1 [Compound 65] | 4.90 | – |
| O=C(NCc1ccc(Cl)cc1)c1csc2c(=O)cc(N3CCOCC3)oc12 [Compound 88] | 4.66 | – |
| O=C(NCCN1CCOCC1)c1csc2c(=O)cc(N3CCOCC3)oc12 [Compound 90] | 4.70 | – |
| O=c1cc(N2CCOCC2)oc2c(-c3cccc(C(F)(F)F)c3)csc12 [Compound 92] | 5.20 | – |
| O=c1cc(N2CCOCC2)oc2c(-c3ccc(O)c(Cl)c3)csc12 [Compound 93] | 5.03 to 5.21 | – |
| COc1cc(-c2csc3c(=O)cc(N4CCOCC4)oc23)ccc1N [Compound 95] | 4.09 | – |
| Nc1cccc(C#Cc2csc3c(=O)cc(N4CCOCC4)oc23)c1 [Compound 96] | 4.60 | – |
